Reference: patent US20040235752A1, “3-fluoro-pyrrolidines as antidiabetic agents” (priority 2001, published 2004)

Target: DP-IV (Homo sapiens, UniProt P27487)
Assay: DP-IV inhibition assay according to WO95/15309
Type: biochemical
Details: at concentrations up to 5 μM
Protocol: Compounds were assayed as inhibitors of DP-IV according to the methods described in WO95/15309.

Sequence of DP-IV (P27487 whole entry): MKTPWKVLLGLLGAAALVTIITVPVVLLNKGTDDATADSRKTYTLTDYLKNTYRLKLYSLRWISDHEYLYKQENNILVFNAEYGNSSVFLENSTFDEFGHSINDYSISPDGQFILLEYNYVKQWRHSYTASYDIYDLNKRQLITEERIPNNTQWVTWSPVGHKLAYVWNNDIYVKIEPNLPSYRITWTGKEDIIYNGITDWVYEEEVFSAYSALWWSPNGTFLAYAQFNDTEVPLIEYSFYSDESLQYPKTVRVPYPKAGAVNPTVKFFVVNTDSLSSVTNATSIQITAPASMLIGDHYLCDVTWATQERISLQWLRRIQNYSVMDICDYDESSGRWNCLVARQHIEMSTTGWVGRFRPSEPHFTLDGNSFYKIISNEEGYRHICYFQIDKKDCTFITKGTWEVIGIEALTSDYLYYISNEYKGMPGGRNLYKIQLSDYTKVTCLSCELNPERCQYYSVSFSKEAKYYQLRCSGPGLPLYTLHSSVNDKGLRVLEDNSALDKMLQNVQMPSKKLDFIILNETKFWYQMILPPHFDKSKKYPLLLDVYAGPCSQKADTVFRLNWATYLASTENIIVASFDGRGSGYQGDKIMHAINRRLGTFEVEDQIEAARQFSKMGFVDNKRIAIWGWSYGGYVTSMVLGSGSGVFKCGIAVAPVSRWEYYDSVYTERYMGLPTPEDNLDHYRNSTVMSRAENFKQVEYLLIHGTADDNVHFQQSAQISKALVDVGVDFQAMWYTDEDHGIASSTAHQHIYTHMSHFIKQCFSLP

SMILES | inhibition of DP-IV
CC(=O)OC(C)OC(=O)N[C@@H](CCCNC(=O)c1cnccn1)C(=O)N1CC(F)(F)C[C@H]1C#N (stereo partly drawn) [Example 7, (2S)-1-[N^α-(1′-Acetoxyethoxycarbonyl)-N^ω-(pyrazinyl-2-carbonyl)-L-ornithinyl]-4,4-difluoropyrrolidine-2-carbonitrile] | do not show significant inhibition
CC(=O)OCOC(=O)N[C@@H](CCCNC(=O)c1cnc(Cl)c(Cl)c1)C(=O)N1CCC(F)(F)C1 [Example 8, 1-[N^α-(Acetoxymethoxycarbonyl)-N^ω-(5,6-dichloronicotinoyl)-L-ornithinyl]-3,3-difluoropyrrolidine] | do not show significant inhibition
